Results: US20160304477A1 (LAguna Pharmaceuticals, Inc., priority 2013, published 2016)
Like-named read-outs stand apart in the source and are kept apart here.

Experiments:
[1] = Plasma concentrations of vanoxerine and its hydroxyl metabolites in patients after a 300 mg dose of vanoxerine (LC-MS/MS); type: in vivo, human; details: 300 mg vanoxerine; for Concentrations (plasma), average: all 25 patients; for High concentration group average (plasma concentration): high concentration group (10 patients); for Low concentration group average (plasma concentration): low concentration group (15 patients)
Procedure: Each patient gave blood samples before administration of their dose, and then again at nine further time points, 30 minutes after admiration, 1, 2, 3, 4, 6, 8, 12, and 24 hours post administration.
Samples: A total of 270 human plasma samples were received (in duplicate). The samples were shipped frozen over dry ice. The samples were stored at −70° C. (nominal) until analysis.
Frozen samples were thawed at room temperature. Samples, calibrators, QC samples, sample blanks (blank plasma) and reagent blanks (water) were processed at room temperature. To 200 μL aliquots of each sample, calibrator, and QC sample are added 20 μL of 500 ng/mL of internal standard solution. A sample blank (blank plasma) and reagent blank (water) were also prepared, but without addition of internal standard solution (20 μL of diluent was added instead). To each sample, 200 μL of 1% ammonium hydroxide solution were added and vortex mixed. 3.0 mL of methyl tert-butyl ether were added and then vortex mix for 30 seconds. The sample is then centrifuged for 5 minutes at 4000 rpm and then transferred for about 30 minutes at −70° C. (nominal). The upper (organic) layer was transferred into an evaporation tubes and then evaporated under N2 stream at ˜50° C. for about 20 min. Samples were then reconstituted in 1000 μL reconstitution solution (80:20:0.1 water: acetonitrile: formic acid). Samples were mixed, allow to stand for about 3 minutes and mixed again. 900 μL of the sample solution was transferred to a 1.5 mL microcentrifuge tube and centrifuged for 5 minutes at 14000 rpm at room temperature. 800 μL of the sample solution was transferred to a glass autosampler vial, and then transferred to the autosampler for analysis. Samples were separated using reversed-phase liquid chromatography with a C18 column.
Detection was based on electro-spray interface in positive mode (ESI+) LC-MS/MS technique, using Micromass Quattro Premier XE MS/MS detector with MassLynx and QuanLynx software version 4.1. […] The MRM transition for all hydroxyl metabolites was m/z 467→203.

[2] = healthy subjects, cited from earlier work
[3] = 1 h post administration, 1.00 = below LLOQ
[4] = 2 h post administration, 1.00 = below LLOQ
[5] = 3 h post administration, 1.00 = below LLOQ
[6] = 4 h post administration, 1.00 = below LLOQ
[7] = 6 h post administration, 1.00 = below LLOQ
[8] = 8 h post administration, 1.00 = below LLOQ
[9] = 12 h post administration, 1.00 = below LLOQ
[10] = 24 h post administration, 1.00 = below LLOQ
[11] = .5 h post administration, 1.00 = below LLOQ
[12] = time -15 (before administration), 1.00 = below LLOQ

Concentrations (plasma), average [1, 3] | Concentrations (plasma), average [1, 4] | Concentrations (plasma), average [1, 5] | Concentrations (plasma), average [1, 6] | Concentrations (plasma), average [1, 7] | Concentrations (plasma), average [1, 8] | Concentrations (plasma), average [1, 9] | Concentrations (plasma), average [1, 10] | Concentrations (plasma), average [1, 11] | Concentrations (plasma), average [1, 12] | High concentration group average (plasma concentration) [1, 3] | High concentration group average (plasma concentration) [1, 4] | High concentration group average (plasma concentration) [1, 5] | High concentration group average (plasma concentration) [1, 6] | High concentration group average (plasma concentration) [1, 7] | High concentration group average (plasma concentration) [1, 8] | High concentration group average (plasma concentration) [1, 9] | High concentration group average (plasma concentration) ([1]; 24 h post administration) | High concentration group average (plasma concentration) [1, 11] | High concentration group average (plasma concentration) [1, 12] | Molecule | also measured
7.51 ng/mL | 19.65 ng/mL | 18.68 ng/mL | 16.42 ng/mL | 11.48 ng/mL | 8.98 ng/mL | 6.30 ng/mL | 3.66 ng/mL | 1.93 ng/mL | 1.00 ng/mL | 8.64 ng/mL | 28.00 ng/mL | 29.64 ng/mL | 24.93 ng/mL | 18.08 ng/mL | 14.50 ng/mL | 9.98 ng/mL | 1.72 ng/mL | 2.55 ng/mL | 1.00 ng/mL | 17-hydroxyl vanoxerine [M01] | Low concentration group average (plasma concentration) [1, 3]: 6.76 ng/mL; Low concentration group average (plasma concentration) [1, 4]: 14.09 ng/mL; Low concentration group average (plasma concentration) [1, 5]: 11.38 ng/mL; Low concentration group average (plasma concentration) [1, 6]: 10.34 ng/mL; Low concentration group average (plasma concentration) [1, 7]: 7.08 ng/mL; Low concentration group average (plasma concentration) [1, 8]: 5.30 ng/mL; Low concentration group average (plasma concentration) [1, 9]: 3.67 ng/mL; Low concentration group average (plasma concentration) [1, 10]: 2.66 ng/mL; Low concentration group average (plasma concentration) [1, 11]: 1.52 ng/mL; Low concentration group average (plasma concentration) [1, 12]: 1.00 ng/mL
1.02 ng/mL | 1.02 ng/mL | 1.01 ng/mL | 1.01 ng/mL | 1.00 ng/mL | 1.00 ng/mL | 1.00 ng/mL | 1.00 ng/mL | 1.00 ng/mL | 1.00 ng/mL | 1.00 ng/mL | 1.05 ng/mL | 1.03 ng/mL | 1.02 ng/mL | 1.00 ng/mL | 1.00 ng/mL | 1.00 ng/mL | 0.00 ng/mL | 1.00 ng/mL | 1.00 ng/mL | 16-hydroxyl vanoxerine [M02] | Low concentration group average (plasma concentration) [1, 3]: 1.03 ng/mL; Low concentration group average (plasma concentration) [1, 4]: 1.00 ng/mL; Low concentration group average (plasma concentration) [1, 5]: 1.00 ng/mL; Low concentration group average (plasma concentration) [1, 6]: 1.00 ng/mL; Low concentration group average (plasma concentration) [1, 7]: 1.00 ng/mL; Low concentration group average (plasma concentration) [1, 8]: 1.00 ng/mL; Low concentration group average (plasma concentration) [1, 9]: 1.00 ng/mL; Low concentration group average (plasma concentration) [1, 10]: 1.00 ng/mL; Low concentration group average (plasma concentration) [1, 11]: 1.00 ng/mL; Low concentration group average (plasma concentration) [1, 12]: 1.00 ng/mL
– | – | – | – | – | – | – | – | – | – | – | – | – | – | – | – | – | – | – | – | Fc1ccc(C(OCCN2CCN(CCCc3ccccc3)CC2)c2ccc(F)cc2)cc1 [Vanoxerine, 1-[2-[bis(4-fluorophenyl)methoxy]ethyl]-4-(3-phenylpropyl)piperazine] | side-effects ([2]; daily repetitive dose of 50 mg): no side-effects should be expected; side-effects ([2]; higher doses of vanoxerine): some effects were seen with regard to concentration difficulties, increase systolic blood pressure, asthenia, and a feeling of drug influence
